The source of these data is patent US11911376B2, “Methods for preventing and treating retinal damage” (THE REGENTS OF THE UNIVERSITY OF COLORADO, priority 2020, dated 2024).

Series [1] is described as follows: Kynurenic acid levels in serum and retina by LC-MS/MS after intravenous injection (blood retinal barrier permeability). It counts as in vivo, WT mice. To be noted: intravenous 2.5 mg/animal, two hours after injection, relative to sodium phosphate buffer-injected control mice, *p<0.05. The procedure:
(§1) Treatment mice were given kynurenic acid intravenously or intravitreally, while control mice were subjected to the same I/R injury but not given kynurenic acid. Intravenous and intravitreal administration of kynurenic acid was performed immediately after I/R injury and again 24 hours post-injury. Kynurenic acid was injected intravenously via the tail vein into WT mice at a concentration of 2.5 mg/animal (25 mg/mL stock dissolved in 0.1 N NaOH, diluted in 0.1 M sodium phosphate buffer, and adjusted to pH 7). After 2 hours, kynurenic acid levels in the serum and retina were measured. Control animals received 0.1 M sodium phosphate buffer (pH 7) alone.
To first determine whether kynurenic acid is permeable across the blood retinal barrier, kynurenic acid levels in the serum and retina of six WT mice intravenously injected with kynurenic acid (KYNA) were measured by LC=MS/MS two hours after injection.

Series [2] relates to retinal ganglion cells (RGCs). Nature of the series: Ischemia/reperfusion (I/R) injury model in mice, Brn3a-positive RGC loss in flat-mounted retinas. The series is classed as in vivo, WT (C57BL/6J) mice. As for the experimental part: To evaluate the effects of kynurenic acid on retinal conditions characterized by RGC death, e.g., glaucoma, wild-type (WT) mice were subjected to ischemia/reperfusion (I/R) injury, which induced RGC death. I/R injury was performed by first anesthetizing 12-week-old WT (C57BL/6J) mice with an intraperitoneal injection of ketamine/xylazine confirmed by the toe-pinch test. The mice were then placed on a heating pad throughout the procedure to maintain their body temperature. The right eye of each animal was cannulated into the anterior chamber with a 33-gauge needle connected to an elevated saline reservoir. The height of the reservoir was adjusted to achieve an intraocular pressure of 120 mmHg. After 60 min of this procedure, the needle was removed.
as §1
Kynurenic acid was injected intravitreally into separate WT mice at a concentration of either 5 or 10 μg/animal (5 mg/mL stock of kynurenic acid was dissolved in 0.1 N NaOH and diluted in 0.1 M sodium phosphate buffer adjusted to pH 7). Control animals were intravitreally injected with buffer alone. Intravitreal injection was performed using a 33-gauge needle attached to a Hamilton syringe (Hamilton Bonaduz AG, Bonaduz, Switzerland). The eye lids were carefully parted, and the 33-gauge needle was inserted at a 45° angle into the vitreous, just behind the limbus. One or two microliters of solution was injected in 1 μL increments with a 30 second gap between each injection. After injection, the needle was slowly withdrawn, and the injected area was treated with a topical antibiotic. Mice were anesthetized with a cocktail containing ketamine and xylazine prior to the intravitreal injections.
All mice were euthanized and retinas dissected 14 days after I/R injury, flat-mounted and immunostained for Brn3a (brain-specific homeobox/POU domain protein 3A), which is a marker for RGCs.

With `O=C(O)c1cc(=O)c2ccccc2[nH]1` [kynurenic acid], the “kynurenic acid levels in retina” value in series [1] is listed as “increased significantly”. In addition, the “kynurenic acid levels in serum” value in series [1] is “increased significantly”. Besides, the “level of RGC loss, central retina” value stood at 11.2% in series [2] (intravenous 2.5 mg/animal immediately after I/R injury and again 24 hours post-injury, Brn3a-positive RGCs per mm2, 14 days after I/R, I/R control 36.3%); 32.4% in series [2] (intravitreal 5 μg immediately after I/R and 24 hours post-injury, 14 days after I/R, I/R control 66.1%); 18.5% in series [2] (intravitreal 10 μg immediately after I/R and 24 hours post-injury, 14 days after I/R, I/R control 66.1%). For the same compound, the “level of RGC loss, peripheral retina” value in series [2] (intravenous 2.5 mg/animal immediately after I/R injury and again 24 hours post-injury, Brn3a-positive RGCs per mm2, 14 days after I/R, I/R control 50%) is given as 29.4%; in series [2] (intravitreal 5 μg immediately after I/R and 24 hours post-injury, 14 days after I/R, I/R control 70.9%) it was 46.1%; in series [2] (intravitreal 10 μg immediately after I/R and 24 hours post-injury, 14 days after I/R, I/R control 70.9%) it was 26.8%.
